# Assay results taken from patent US11419870B2, “Intermittent dosing of MDM2 inhibitor” (Novartis AG, priority 2014, dated 2022).
# Experiments:
# [1] = system: melanoma patient derived xenograft (PDX); experiment: Efficacy in melanoma patient derived xenograft bearing rat (per os); type: in vivo; details: 27 mg/kg q3w per os
# Excerpt: The same experiments were repeated with melanoma PTX bearing rat.
# [2] = Tolerability in SJSA-1 tumor-bearing nude rat (body weight, survival); type: in vivo
# Experimental: Subcutaneous tumors were induced by concentrating 1.0×10^7 SJSA-1 cells in 50% Matrigel® and injecting in the right flank of Harlan nude rats.
# [formula] Similarly, the body-weight (BW) of the animal was measured three times per week allowing calculation at any particular time-point relative to the day of initiation of treatment (day 0) of the percentage change in BW (Δ % BW).
# [3] = system: bone marrow; experiment: Bone marrow depletion and recovery after i.v. treatment (sternum sections); type: in vivo, rat; details: i.v. 20 mg/kg
# Experimental: All tissues were processed to FFPE according to routine procedures and following fixation, rat sternum was decalcified in Citrate/EDTA buffer for 5 days, with buffer exchange every 24 h. Sections were cut at 3 μm using a microtome. p21 and cleaved Caspase-3 immunohistochemistry was performed on a Ventana Discovery XT automated immunostainer using the OmniMap anti Mouse or Rabbit HRP secondary reagent and the ChromoMap DAB chromogen system (Ventana/Roche Diagnostics GmbH, Mannheim, Germany). Antigen retrieval was done by using Cell Conditioning Discovery CC1 (Ventana/Roche Diagnostics) at mild (95° 8 min+100° 20 min, for cleaved Caspase-3) or standard (95° 8 min+100° 36 min, for p21) conditions. The primary antibody was applied manually at the desired dilution in Dako antibody diluent, followed by incubation for 1 hour at room temperature. Corresponding negative controls were incubated with AbD only. Counterstaining of sections was done using hematoxylin (Ventana/Roche Diagnostics). After the automated staining run, slides were dehydrated in a graded series of ethanol, cleared in xylene and mounted with Pertex mounting medium.
# [4] = system: BBC3 (puma); experiment: Pharmacodynamic qRT-PCR: Puma mRNA induction in SJSA-1 tumor; type: in vivo, Human
# Excerpt: At the times indicated, animals were anaesthetized by exposure to 2-3% v/v isofluorane in medical oxygen: • Either the animal was killed without recovering from anesthetic after blood sampling. Blood was collected into commercially prepared EDTA coated tubes (Milian, cat #TOM-14C) in order to extract plasma. The tissues were excised, weighed and rapidly frozen in liquid nitrogen. • Or a tumor biopsy was collected by using a biopsy gun and flushing the needle with RLT buffer in Barney rubble tubes (Covaris, cat #520048). In addition, 20 μl of blood may have been collected from the tail vein and diluted in 20 μl of water. After recovery of anesthesia, animals were transferred in their respective cages.
# Frozen tissues were cryogenic dry pulverized and biopsies were sonicated using the CryoPrep™ system (model CP-02) from Covaris. More specifically, frozen tissues were transferred to disposable tubes called TissueTubes™, placed in the CryoPrep™ system and then pulverized using the appropriate impact setting. The resulting powder was collected with a spatula and weighed for further processing (mRNA purification or quantification of compound in tissues). The biopsies were flushed in a Barney rubble glass tubes with 350 μl of RLT buffer and placed in the Covaris for sonication (1 min per biopsy). The resulting lysate was transferred into a QIAshredder (79654, Qiagen) column for RNA extraction.
# Total RNA was purified from cell pellets using the QIAshredder (79654, Qiagen) and RNeasy Mini Kit (74106, Qiagen) according to the manufacturer's instructions, with the exception that no DNA digestion was performed. Total RNA was eluted with 50 μL of RNase-free water. Total RNA was quantitated using the spectrophotometer ND-1000 Nanodrop®. The qRT-PCR (Quantitative Reverse Transcriptase Polymerase Chain Reaction) was set up in triplicate per sample using the One-Step RT qPCR Master Mix Plus (RT-QPRT-032X, Eurogentec), with either control primers and primers for the target, namely TaqMan Gene Expression assays (20× probe dye FAM™ (or VIC)-TAMRA (or MGB); Applied Biosystems) listed in Table 1.
# [5] = system: Rat Bbc3 (PUMA); experiment: mRNA in situ hybridization of host tissues; type: in vivo; details: i.v. 20 mg/kg
# Experimental: In situ hybridization was performed using the QuantiGene ViewRNA FFPE Assay kit (Affymetrix/Panomics) following the manufacturer's protocol. Gene-specific probe sets for rat Ubc (Ubiquitin C) and Bbc3 (PUMA) mRNAs were custom-designed and synthesized by Affymetrix. Bbc3 probes were used in type 1/Fast Red and Ubc probes were used in type 6/Fast Blue. Slides were processed strictly following the QuantiGene protocol. […] Briefly, five micrometer sections were cut, fixed in 10% formaldehyde, deparaffinized and rehydrated. In order to increase accessibility to mRNAs, slides were then boiled in pre-treatment solution (Affymetrix) and digested with protease QF (Affymetrix) at optimal conditions. Sections were then hybridized for 3 h at 40° C. with custom-designed QuantiGene ViewRNA probes against Bbc3 and the control gene Ubc. A no-probe sample was utilized as a negative control per the Affymetrix manual's recommendations. […] LP-AP type 6 probe detection of signal was done with Fast Blue substrate (blue dots, Cy5 fluorescence) for 30 mn at RT in the dark, followed by LP-AP type 1 probe detection of signal with Fast Red Substrate (red dots, Cy3 fluorescence) for 30 mn at 40° C. […]
compound,measurement,setting,value
"COc1ncc(-c2nc3c(n2C(C)C)[C@H](c2ccc(Cl)cc2)N(c2cc(Cl)cn(C)c2=O)C3=O)c(OC)n1 [Compound A, (S)-5-(5-Chloro-1-methyl-2-oxo-1,2-dihydro-pyridin-3-yl)-6-(4-chloro-phenyl)-2-(2,4-dimethoxy-pyrimidin-5-yl)-1-isopropyl-5,6-dihydro-1H-pyrrolo[3,4-d]imidazol-4-one]",efficacy of intermittent dosing,[1],showed efficacy
same,ABW (%),"[2]; i.v. q3w 13.7 mg/kg, week 1 post treatment",2.7 ± 0.9%
same,ABW (%),"[2]; i.v. q3w 13.7 mg/kg, week 2 post treatment",7.5 ± 1.0%
same,ABW (%),"[2]; i.v. q3w 18.2 mg/kg, week 1 post treatment",2.5 ± 2.6%
same,ABW (%),"[2]; i.v. q3w 18.2 mg/kg, week 2 post treatment",9.1 ± 1.9%
same,ABW (%),"[2]; i.v. q3w 18.2 mg/kg, week 3 post treatment",11.9 ± 2.7%
same,ABW (%),"[2]; i.v. q3w 18.2 mg/kg, week 5 post treatment",10.6 ± 2.3%
same,ABW (%),"[2]; i.v. q3w 18.2 mg/kg, week 6 post treatment",5.9 ± 7.9%
same,sacrifice because of excessive body weight (BW) loss,"[2]; single i.v. 20 mg/kg, day 9 post treatment",One rat had to be sacrificed
same,bone marrow state,[3]; 14 days post treatment,severe bone marrow depletion
same,bone marrow recovery,[3]; day 22,partial recovery
same,Puma mRNA expression in tumor,"[4]; after first p.o. treatment, 20 and 27 mg/kg",dose-dependently increased
same,Puma mRNA expression increase in tumor,[4]; after first single i.v. treatment 20 mg/kg,more than 50 fold
same,Puma mRNA expression induction,[4]; below the high dose,5-6 fold
same,Puma mRNA induction Emax,"[4]; higher single dose, intravenously or per os",≥ 70 fold induction
same,Puma mRNA expression max,"[4]; single i.v. 20 mg/kg, 24 h post treatment, tumor",180 fold
same,Puma mRNA induction Emax,"[4]; single oral 27 mg/kg, 48 h post treatment, tumor",162 fold
same,time of maximum increase in Puma (Bbc3) mRNA,"[5]; jejunum section, post last treatment",3 h
same,time of return of Puma mRNA to baseline,[5]; post treatment,7 days
